pIC50: −log10 of the molar value. Where “and” joins values, the source holds several entries; their conditions need not be identical. Identical values can stand only once.
Tests used:
Test in all cases: cells
CAPAN-1 = type: functional, cell-based, Homo sapiens;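 also: growth suppression of CAPAN-1 cells, read out by a cell viability assay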
Description: SANGER: Inhibition of human CAPAN-1 cell growth in a cell viability assay.

BHY = type: functional, cell-based, Homo sapiens;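 also: cell growth inhibition read out by a viability assay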
Description: SANGER: Inhibition of human BHY cell growth in a cell viability assay.

NCI-H358 = type: functional, cell-based, Homo sapiens;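 also: growth inhibition of NCI-H358 human cells, read out with a cell viability assay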
Description: SANGER: Inhibition of human NCI-H358 cell growth in a cell viability assay.

HuP-T4 = type: functional, cell-based, Homo sapiens;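 also: cell viability assay measuring how much HuP-T4 cell growth is inhibited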
Description: SANGER: Inhibition of human HuP-T4 cell growth in a cell viability assay.

UACC-257 = type: functional, cell-based, Homo sapiens
Description: SANGER: Inhibition of human UACC-257 cell growth in a cell viability assay.

NCI-H1355 = type: functional, cell-based, Homo sapiens;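 also: growth inhibition of human NCI-H1355 cells, read out by a cell viability assay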
Description: SANGER: Inhibition of human NCI-H1355 cell growth in a cell viability assay.

NCI-H23 = type: functional, cell-based, Homo sapiens;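 also: cell viability assay measuring growth inhibition of NCI-H23 cells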
Description: SANGER: Inhibition of human NCI-H23 cell growth in a cell viability assay.

NCI-H209 = type: functional, cell-based; settings: Homo sapiens;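 also: growth inhibition of human NCI-H209 cells, measured by a cell viability assay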
Description: SANGER: Inhibition of human NCI-H209 cell growth in a cell viability assay.

IST-MEL1 = type: functional, cell-based, Homo sapiens;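 also: growth inhibition of the cell line, read out with a cell viability assay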
Description: SANGER: Inhibition of human IST-MEL1 cell growth in a cell viability assay.

RPMI-8866 = type: functional, cell-based; settings: Homo sapiens
Description: SANGER: Inhibition of human RPMI-8866 cell growth in a cell viability assay.

IST-MES1 = type: functional, cell-based, Homo sapiens;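 also: growth inhibition of IST-MES1 cells, measured with a cell viability assay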
Description: SANGER: Inhibition of human IST-MES1 cell growth in a cell viability assay.

HuP-T3 = type: functional, cell-based, Homo sapiens;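 also: HuP-T3 cell growth inhibition, read out with a cell viability assay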
Description: SANGER: Inhibition of human HuP-T3 cell growth in a cell viability assay.

COLO-668 = type: functional, cell-based, Homo sapiens
Description: SANGER: Inhibition of human COLO-668 cell growth in a cell viability assay.

MFM-223 = type: functional, cell-based, Homo sapiens
Description: SANGER: Inhibition of human MFM-223 cell growth in a cell viability assay.

A 172 = type: functional, cell-based, Homo sapiens;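 also: growth inhibition of A172 cells, measured with a cell viability readout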
Description: SANGER: Inhibition of human A172 cell growth in a cell viability assay.

EW-18 = type: functional, cell-based; settings: Homo sapiens;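 also: growth inhibition of EW-18 cells, read out by a cell viability assay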
Description: SANGER: Inhibition of human EW-18 cell growth in a cell viability assay.

KYSE-180 = type: functional, cell-based, Homo sapiens;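 also: growth inhibition of KYSE-180 cells, read out with a cell viability assay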
Description: SANGER: Inhibition of human KYSE-180 cell growth in a cell viability assay.

ABC-1 = type: functional, cell-based, Homo sapiens;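 also: growth inhibition of human ABC-1 cells, read out by a cell viability assay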
Description: SANGER: Inhibition of human ABC-1 cell growth in a cell viability assay.

CCRF-CEM = type: functional, cell-based; settings: Homo sapiens;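 also: inhibition of CCRF-CEM cell growth, measured by a cell viability assay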
Description: SANGER: Inhibition of human CCRF-CEM cell growth in a cell viability assay.

M059J = type: functional, cell-based, Homo sapiens;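 also: growth inhibition of M059J cells, read out with a cell viability assay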
Description: SANGER: Inhibition of human M059J cell growth in a cell viability assay.

SK-N-FI = type: functional, cell-based, Homo sapiens;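 also: cell viability assay measuring growth inhibition of human SK-N-FI cells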
Description: SANGER: Inhibition of human SK-N-FI cell growth in a cell viability assay.

U-118-MG = type: functional, cell-based, Homo sapiens
Description: SANGER: Inhibition of human U-118-MG cell growth in a cell viability assay.

U2OS = type: functional, cell-based, Homo sapiens, U-2-OS;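 also: growth inhibition of human U-2-OS cells, determined with a cell viability assay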
Description: SANGER: Inhibition of human U-2-OS cell growth in a cell viability assay.

SW1463 = type: functional, cell-based, Homo sapiens;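 also: growth inhibition of SW1463 cells, determined with a cell viability assay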
Description: SANGER: Inhibition of human SW1463 cell growth in a cell viability assay.

QIMR-WIL = type: functional, cell-based; settings: Homo sapiens;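 also: growth inhibition of QIMR-WIL cells, read out with a cell viability assay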
Description: SANGER: Inhibition of human QIMR-WIL cell growth in a cell viability assay.

NB6 = type: functional, cell-based, Homo sapiens
Description: SANGER: Inhibition of human NB6 cell growth in a cell viability assay.

SCC-25 = type: functional, cell-based, Homo sapiens;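 also: growth inhibition of SCC-25 cells, measured with a cell viability assay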
Description: SANGER: Inhibition of human SCC-25 cell growth in a cell viability assay.

MLMA = type: functional, cell-based, Homo sapiens;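 also: growth inhibition of MLMA cells (human), determined through a cell viability readout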
Description: SANGER: Inhibition of human MLMA cell growth in a cell viability assay.

GMS-10 = type: functional, cell-based, Homo sapiens;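 also: growth inhibition of GMS-10 cells, read out as cell viability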
Description: SANGER: Inhibition of human GMS-10 cell growth in a cell viability assay.

COR-L105 = type: functional, cell-based, Homo sapiens;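 also: cell growth inhibition determined with a viability assay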
Description: SANGER: Inhibition of human COR-L105 cell growth in a cell viability assay.

SK-MEL3 = type: functional, cell-based, Homo sapiens, SK-MEL-3;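 also: growth inhibition of human SK-MEL-3 cells, read out with a cell viability assay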
Description: SANGER: Inhibition of human SK-MEL-3 cell growth in a cell viability assay.

NCI-H1304 = type: functional, cell-based; settings: Homo sapiens;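 also: growth inhibition of the cancer cell line, measured in a cell viability assay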
Description: SANGER: Inhibition of human NCI-H1304 cell growth in a cell viability assay.

MCF7 = type: functional, cell-based, Homo sapiens;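 also: growth inhibition of human MCF7 cells, read out with a cell viability assay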
Description: SANGER: Inhibition of human MCF7 cell growth in a cell viability assay.

COR-L88 = type: functional, cell-based; settings: Homo sapiens;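 also: growth inhibition of COR-L88 cells, read out with a cell viability assay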
Description: SANGER: Inhibition of human COR-L88 cell growth in a cell viability assay.

EW-1 = type: functional, cell-based, Homo sapiens
Description: SANGER: Inhibition of human EW-1 cell growth in a cell viability assay.

HDLM-2 = type: functional, cell-based; settings: Homo sapiens;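 also: cell viability assay measuring suppression of HDLM-2 proliferation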
Description: SANGER: Inhibition of human HDLM-2 cell growth in a cell viability assay.

TE-10 = type: functional, cell-based, Homo sapiens;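 also: growth inhibition of TE-10 cells, measured by a cell viability assay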
Description: SANGER: Inhibition of human TE-10 cell growth in a cell viability assay.

COR-L23 = type: functional, cell-based, Homo sapiens;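 also: cell viability assay measuring how strongly compounds suppress growth of COR-L23 cells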
Description: SANGER: Inhibition of human COR-L23 cell growth in a cell viability assay.

EFO-27 = type: functional, cell-based, Homo sapiens;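 also: growth inhibition of EFO-27 cells, read out with a cell viability assay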
Description: SANGER: Inhibition of human EFO-27 cell growth in a cell viability assay.

BFTC-905 = type: functional, cell-based, Homo sapiens
Description: SANGER: Inhibition of human BFTC-905 cell growth in a cell viability assay.

LNCaP-Clone-FGC = type: functional, cell-based, Homo sapiens
Description: SANGER: Inhibition of human LNCaP-Clone-FGC cell growth in a cell viability assay.

NB17 = type: functional, cell-based; settings: Homo sapiens;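 also: growth inhibition of NB17 cells, read out with a cell viability assay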
Description: SANGER: Inhibition of human NB17 cell growth in a cell viability assay.

OVCAR-8 = type: functional, cell-based, Homo sapiens;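 also: growth inhibition of human OVCAR-8 cells, read out by a cell viability assay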
Description: SANGER: Inhibition of human OVCAR-8 cell growth in a cell viability assay.

SNU-387 = type: functional, cell-based, Homo sapiens
Description: SANGER: Inhibition of human SNU-387 cell growth in a cell viability assay.

NCI-H1651 = type: functional, cell-based, Homo sapiens;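 also: Read-out is a cell viability assay, with IC50 expressing inhibition of NCI-H1651 cell growth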
Description: SANGER: Inhibition of human NCI-H1651 cell growth in a cell viability assay.

NB69 = type: functional, cell-based, Homo sapiens;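 also: growth inhibition of NB69 cells, determined by a cell viability assay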
Description: SANGER: Inhibition of human NB69 cell growth in a cell viability assay.

CAL-27 = type: functional, cell-based, Homo sapiens;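 also: Viability-based readout, IC50 reflecting inhibition of CAL-27 cell growth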
Description: SANGER: Inhibition of human CAL-27 cell growth in a cell viability assay.

EW-24 = type: functional, cell-based; settings: Homo sapiens;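 also: human EW-24 cancer cell line, growth inhibition read out via a cell viability assay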
Description: SANGER: Inhibition of human EW-24 cell growth in a cell viability assay.

GAMG = type: functional, cell-based, Homo sapiens;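 also: cell growth inhibition measured by a viability assay in the GAMG human cell line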
Description: SANGER: Inhibition of human GAMG cell growth in a cell viability assay.

SW1417 = type: functional, cell-based, Homo sapiens;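 also: growth inhibition of human SW1417 cells, read out with a cell viability assay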
Description: SANGER: Inhibition of human SW1417 cell growth in a cell viability assay.

TE-5 = type: functional, cell-based, Homo sapiens;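 also: inhibition of cell growth, read out by a cell viability assay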
Description: SANGER: Inhibition of human TE-5 cell growth in a cell viability assay.

Cc1cc([C@@H](C)Nc2ccccc2C(=O)O)c2nc(N3CCOCC3)cc(=O)n2c1 [AZD-6482]
pIC50 (CAPAN-1; capan-1): < 5.29 | pIC50 (BHY; bhy): < 5.29 | pIC50 (NCI-H358; nci-h358): < 5.29 | pIC50 (HuP-T4; hup-t4): < 5.29 | pIC50 (UACC-257; Homo sapiens, UACC-257): < 5.29 | pIC50 (UACC-257; uacc-257): < 5.29 | pIC50 (NCI-H1355; Homo sapiens, NCI-H1355): < 5.29 | pIC50 (NCI-H1355; nci-h1355): < 5.29 | pIC50 (NCI-H23; nci-h23): < 5.29 | pIC50 (NCI-H209): < 5.29 | pIC50 (IST-MEL1; ist-mel1): 5.60 and < 5.29 | pIC50 (RPMI-8866): < 5.29 | pIC50 (IST-MES1; ist-mes1): < 5.29 | pIC50 (HuP-T3; hup-t3): < 5.29 | pIC50 (COLO-668; colo-668): < 5.29 | pIC50 (MFM-223; mfm-223): < 5.29 | pIC50 (A 172; a 172): < 5.29 | pIC50 (EW-18): < 5.29 | pIC50 (KYSE-180; kyse-180): < 5.29 | pIC50 (ABC-1; abc-1): < 5.29 | pIC50 (CCRF-CEM): 5.44 | pIC50 (M059J; Homo sapiens, M059J): < 5.29 | pIC50 (M059J; m059j): < 5.29 | pIC50 (SK-N-FI; sk-n-fi): < 5.29 | pIC50 (U-118-MG; u-118-mg): < 5.29 and 5.49 | pIC50 (U2OS; u-2-os): < 5.29 and 5.34 | pIC50 (SW1463; sw1463): < 5.29 | pIC50 (QIMR-WIL): 5.40 | pIC50 (NB6; nb6): < 5.29 | pIC50 (SCC-25; scc-25): < 5.29 and 5.32 | pIC50 (MLMA; Homo sapiens, MLMA): 5.43 | pIC50 (MLMA; mlma): 5.31 | pIC50 (GMS-10; Homo sapiens, GMS-10): < 5.29 | pIC50 (GMS-10; gms-10): < 5.29 | pIC50 (COR-L105; cor-l105): < 5.29 | pIC50 (SK-MEL3; Homo sapiens, SK-MEL3): < 5.29 | pIC50 (SK-MEL3; sk-mel-3): < 5.29 | pIC50 (NCI-H1304): < 5.29 | pIC50 (MCF7; mcf7): < 5.29 and 5.47 | pIC50 (COR-L88): < 5.29 | pIC50 (EW-1; ew-1): < 5.29 | pIC50 (HDLM-2): < 5.29 | pIC50 (TE-10; te-10): < 5.29 | pIC50 (COR-L23; cor-l23): < 5.29 | pIC50 (EFO-27; Homo sapiens, EFO-27): < 5.29 | pIC50 (EFO-27; efo-27): < 5.29 | pIC50 (BFTC-905; bftc-905): < 5.29 and 5.38 | pIC50 (LNCaP-Clone-FGC; Homo sapiens, LNCaP-Clone-FGC): 5.82 | pIC50 (LNCaP-Clone-FGC; lncap-clone-fgc): 5.62 | pIC50 (NB17): < 5.29 | pIC50 (OVCAR-8; ovcar-8): < 5.29 | pIC50 (SNU-387; snu-387): < 5.29 | pIC50 (NCI-H1651; Homo sapiens, NCI-H1651): < 5.29 | pIC50 (NCI-H1651; nci-h1651): < 5.29 | pIC50 (NB69; Homo sapiens, NB69): < 5.29 | pIC50 (NB69; nb69): < 5.29 | pIC50 (CAL-27; Homo sapiens, CAL-27): < 5.29 | pIC50 (CAL-27; cal-27): < 5.29 | pIC50 (EW-24): < 5.29 | pIC50 (GAMG; gamg): 5.35 and 6.00 | pIC50 (SW1417; sw1417): < 5.29 | pIC50 (TE-5; Homo sapiens, TE-5): < 5.29 | pIC50 (TE-5; te-5): < 5.29

O=C(NOCC1CC1)c1ccc(F)c(F)c1Nc1ccc(I)cc1Cl [CI-1040]
pIC50 (CAPAN-1; Homo sapiens, CAPAN-1): < 5.00 | pIC50 (BHY; Homo sapiens, BHY): < 5.00 | pIC50 (NCI-H358; Homo sapiens, NCI-H358): 5.35 | pIC50 (HuP-T4; Homo sapiens, HuP-T4): 5.93 | pIC50 (UACC-257; Homo sapiens, UACC-257): 6.02 | pIC50 (NCI-H1355; Homo sapiens, NCI-H1355): 5.12 | pIC50 (NCI-H23; Homo sapiens, NCI-H23): < 5.00 | pIC50 (NCI-H209): < 5.00 | pIC50 (IST-MEL1; Homo sapiens, IST-MEL1): 5.10 | pIC50 (RPMI-8866): 5.21 | pIC50 (IST-MES1; Homo sapiens, IST-MES1): < 5.00 | pIC50 (HuP-T3; Homo sapiens, HuP-T3): 5.25 | pIC50 (COLO-668; Homo sapiens, COLO-668): < 5.00 | pIC50 (MFM-223; Homo sapiens, MFM-223): < 5.00 | pIC50 (A 172; Homo sapiens, A 172): 5.19 | pIC50 (EW-18): < 5.00 | pIC50 (KYSE-180; Homo sapiens, KYSE-180): < 5.00 | pIC50 (ABC-1; Homo sapiens, ABC-1): < 5.00 | pIC50 (CCRF-CEM): < 5.00 | pIC50 (M059J; Homo sapiens, M059J): < 5.00 | pIC50 (SK-N-FI; Homo sapiens, SK-N-FI): 5.05 | pIC50 (U-118-MG; Homo sapiens, U-118-MG): < 5.00 | pIC50 (U2OS; Homo sapiens, U2OS): 5.44 | pIC50 (SW1463; Homo sapiens, SW1463): 5.87 | pIC50 (QIMR-WIL): < 5.00 | pIC50 (NB6; Homo sapiens, NB6): < 5.00 | pIC50 (SCC-25; Homo sapiens, SCC-25): 5.11 | pIC50 (MLMA; Homo sapiens, MLMA): < 5.00 | pIC50 (GMS-10; Homo sapiens, GMS-10): < 5.00 | pIC50 (COR-L105; Homo sapiens, COR-L105): 5.18 | pIC50 (SK-MEL3; Homo sapiens, SK-MEL3): 5.41 | pIC50 (NCI-H1304): 5.21 | pIC50 (MCF7; Homo sapiens, MCF7): < 5.00 | pIC50 (COR-L88): < 5.00 | pIC50 (EW-1; Homo sapiens, EW-1): < 5.00 | pIC50 (HDLM-2): < 5.00 | pIC50 (TE-10; Homo sapiens, TE-10): < 5.00 | pIC50 (COR-L23; Homo sapiens, COR-L23): 5.14 | pIC50 (EFO-27; Homo sapiens, EFO-27): 5.32 | pIC50 (BFTC-905; Homo sapiens, BFTC-905): 5.55 | pIC50 (LNCaP-Clone-FGC; Homo sapiens, LNCaP-Clone-FGC): < 5.00 | pIC50 (NB17): < 5.00 | pIC50 (OVCAR-8; Homo sapiens, OVCAR-8): < 5.00 | pIC50 (SNU-387; Homo sapiens, SNU-387): < 5.00 | pIC50 (NCI-H1651; Homo sapiens, NCI-H1651): < 5.00 | pIC50 (NB69; Homo sapiens, NB69): 5.75 | pIC50 (CAL-27; Homo sapiens, CAL-27): 5.62 | pIC50 (EW-24): < 5.00 | pIC50 (GAMG; Homo sapiens, GAMG): 5.40 | pIC50 (SW1417; Homo sapiens, SW1417): 5.02 | pIC50 (TE-5; Homo sapiens, TE-5): 5.07
